The values below come from PubChem BioAssay AID328 (DTP/NCI, 2004).

Several values for one entry are separate records, joined by “and”; a condition that tells them apart may be missing. Equal entries are not always repeated. Inconclusive results and toxic doses are left out.

For this test, the system named is BDF1 mice, P388 leukemia ip, median survival T/C. As to the kind of experiment: NCI In Vivo Anticancer Drug Screen. Data for tumor model P388 Leukemia (intraperitoneal) in B6D2F1 (BDF1) mice. The settings on record: endpoint: median survival time, higher = longer survival. The gist of the method:
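T/C = treated-group survival ÷ vehicle-control survival; tumour transplanted into mice before dosing.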

The mark [1] stands for this setting: dose: 100.0 mg/kg/injection, schedule: Q01DX001 (ip), vehicle: saline with Tween-80.
Where [2] appears, read: dose: 200.0 mg/kg/injection, schedule: Q01DX001 (ip), vehicle: saline with Tween-80.
[3] abbreviates: dose: 400.0 mg/kg/injection, schedule: Q01DX001 (ip), vehicle: saline with Tween-80.
Setting [4] is: dose: 25.0 mg/kg/injection, schedule: Q01DX009 (ip), vehicle: saline.
The mark [5] stands for this setting: dose: 50.0 mg/kg/injection, schedule: Q01DX009 (ip), vehicle: saline.
Setting [6] is: dose: 50.0 mg/kg/injection, schedule: Q04DX003 (ip), vehicle: saline.
Setting [7] is: dose: 75.0 mg/kg/injection, schedule: Q04DX003 (ip), vehicle: saline.
Setting [8] is: dose: 100.0 mg/kg/injection, schedule: Q01DX009 (ip), vehicle: Klucel (hydroxypropylcellulose) (HPC).
Setting [9] is: dose: 100.0 mg/kg/injection, schedule: Q04DX003 (ip), vehicle: Klucel (hydroxypropylcellulose) (HPC).
The mark [10] stands for this setting: dose: 200.0 mg/kg/injection, schedule: Q01DX009 (ip), vehicle: Klucel (hydroxypropylcellulose) (HPC).
Where [11] appears, read: dose: 200.0 mg/kg/injection, schedule: Q04DX003 (ip), vehicle: Klucel (hydroxypropylcellulose) (HPC).
Setting [12] is: dose: 400.0 mg/kg/injection, schedule: Q04DX003 (ip), vehicle: Klucel (hydroxypropylcellulose) (HPC).
Setting [13] is: dose: 100.0 mg/kg/injection, schedule: Q01DX009 (ip), vehicle: saline.

As to `CC(C)(C)c1cc(Br)c(N)c(C(O)(C(F)(F)F)C(F)(F)F)c1`, the T/C is, setting by setting: under setting [1], 105 % of control; under setting [2], 109 % of control; under setting [3], 111 % of control.
Consider `[NH2-].[NH2-].[NH2-].[NH2-].[Pt+4]`, for which the T/C runs as follows: (dose: 12.5 mg/kg/injection, schedule: Q01DX009 (ip), vehicle: saline with Tween-80) 90 % of control; (dose: 25.0 mg/kg/injection, schedule: Q01DX009 (ip), vehicle: saline with Tween-80) 100 % of control; (dose: 50.0 mg/kg/injection, schedule: Q01DX009 (ip), vehicle: saline with Tween-80) 90 % of control.
As to `CCCCCCCCOP(=O)(N1CC1)N1CC1`, the T/C is, setting by setting: (dose: 12.5 mg/kg/injection, schedule: Q04DX003 (ip), vehicle: saline) 170 % of control; (dose: 14.0 mg/kg/injection, schedule: Q04DX003 (ip), vehicle: saline) 150 % of control; (dose: 21.0 mg/kg/injection, schedule: Q04DX003 (ip), vehicle: saline) 154 % of control; under setting [4], 183 % of control; (dose: 25.0 mg/kg/injection, schedule: Q04DX003 (ip), vehicle: saline) 160 % of control; (dose: 33.0 mg/kg/injection, schedule: Q01DX009 (ip), vehicle: saline) 211 % of control. Moreover, the T/C by setting is: (dose: 33.0 mg/kg/injection, schedule: Q04DX003 (ip), vehicle: saline) 180 % of control and 222 % of control; under setting [5], 230 % of control and 250 % of control; under setting [6], 242 % of control and 285 % of control; (dose: 75.0 mg/kg/injection, schedule: Q01DX009 (ip), vehicle: saline) 111 % of control; under setting [7], 285 % of control.
For the compound `CC1(C)N=C(N)N=C(N)N1c1ccc(CNC(=O)Nc2cccc(S(=O)(=O)F)c2)cc1`, the T/C by setting is: (dose: 35.0 mg/kg/injection, schedule: Q04DX003 (ip), vehicle: saline) 104 % of control; under setting [6], 150 % of control; under setting [7], 163 % of control; (dose: 99.0 mg/kg/injection, schedule: Q04DX003 (ip), vehicle: saline) 200 % of control; (dose: 150.0 mg/kg/injection, schedule: Q04DX003 (ip), vehicle: saline) 159 % of control and 195 % of control and 215 % of control; (dose: 225.0 mg/kg/injection, schedule: Q04DX003 (ip), vehicle: saline) 225 % of control and 163 % of control. Besides, under “dose: 300.0 mg/kg/injection, schedule: Q04DX003 (ip), vehicle: saline”, the T/C was 177 % of control.
For `NC(=O)NO`, the T/C was 100 % of control (dose: 31.3 mg/kg/injection, schedule: Q01DX010 (ip), vehicle: saline); 100 % of control (dose: 62.5 mg/kg/injection, schedule: Q01DX010 (ip), vehicle: saline); 100 % of control (dose: 125.0 mg/kg/injection, schedule: Q01DX010 (ip), vehicle: saline); 100 % of control (dose: 250.0 mg/kg/injection, schedule: Q01DX010 (ip), vehicle: saline); 150 % of control (dose: 500.0 mg/kg/injection, schedule: Q01DX010 (ip), vehicle: saline); 100 % of control (dose: 750.0 mg/kg/injection, schedule: Q01DX009 (ip), vehicle: saline).
With `c1ccc(C[n+]2ccc(-c3cc[n+](Cc4ccccc4)cc3)cc2)cc1`, the T/C is, setting by setting: (dose: 1.25 mg/kg/injection, schedule: Q01DX010 (ip), vehicle: saline) 86 % of control; (dose: 156.0 micrograms/kg/injection, schedule: Q01DX010 (ip), vehicle: saline) 104 % of control; (dose: 313.0 micrograms/kg/injection, schedule: Q01DX010 (ip), vehicle: saline) 104 % of control; (dose: 625.0 micrograms/kg/injection, schedule: Q01DX010 (ip), vehicle: saline) 104 % of control.
On to `C#C[C@]1(O)CC[C@H]2[C@@H]3CCc4cc(O)ccc4[C@H]3CC[C@@]21C`, for which the T/C runs as follows: under setting [8], 95 % of control; under setting [9], 104 % of control; under setting [10], 87 % of control; under setting [11], 104 % of control; under setting [12], 95 % of control.
As for `CC(O)(c1ccc(Br)cc1)C(c1ccccc1)c1ccccn1` (centres undefined), the T/C is 104 % of control under setting [4]; 100 % of control under setting [5]; 86 % of control under setting [13]; 111 % of control (dose: 100.0 mg/kg/injection, schedule: Q04DX003 (ip), vehicle: saline); 111 % of control (dose: 200.0 mg/kg/injection, schedule: Q01DX009 (ip), vehicle: saline); 104 % of control (dose: 200.0 mg/kg/injection, schedule: Q04DX003 (ip), vehicle: saline). Further, the T/C reads like this: (dose: 400.0 mg/kg/injection, schedule: Q01DX009 (ip), vehicle: saline) 101 % of control; (dose: 400.0 mg/kg/injection, schedule: Q04DX003 (ip), vehicle: saline) 109 % of control.
Consider `CC1=CCCC2(CCC3(C)CC32)C1(C)C` (centres undefined), for which the T/C is, setting by setting: (dose: 45.0 mg/kg/injection, schedule: Q01DX009 (ip), vehicle: saline) 90 % of control; under setting [5], 100 % of control; (dose: 67.0 mg/kg/injection, schedule: Q01DX009 (ip), vehicle: saline) 109 % of control; under setting [13], 113 % of control and 120 % of control.
For `CC(C)COC(=O)c1ccccc1O`, the T/C (dose: 75.0 mg/kg/injection, schedule: Q01DX009 (ip), vehicle: Klucel (hydroxypropylcellulose) (HPC)) is 109 % of control; the T/C under setting [9] is 111 % of control; the T/C (dose: 150.0 mg/kg/injection, schedule: Q01DX009 (ip), vehicle: Klucel (hydroxypropylcellulose) (HPC)) is 90 % of control; the T/C under setting [11] was 92 % of control; the T/C (dose: 300.0 mg/kg/injection, schedule: Q01DX009 (ip), vehicle: Klucel (hydroxypropylcellulose) (HPC)) is 109 % of control.
With `CC(c1ccccc1)N1CCS(=O)(=O)CC1` (centres undefined), the T/C is, setting by setting: (dose: 50.0 mg/kg/injection, schedule: Q01DX009 (ip), vehicle: Klucel (hydroxypropylcellulose) (HPC)) 93 % of control; under setting [8], 106 % of control; under setting [10], 90 % of control.
For the compound `CC(C(Nc1ccc(C(=O)O)cc1)C(F)(F)C(F)(F)C(F)(F)F)[N+](=O)[O-]` (centres undefined), the T/C by setting is: under setting [1], 95 % of control; under setting [2], 104 % of control; under setting [3], 100 % of control.
Regarding `NC(=O)NN=C1CCCCC1`, the T/C was 90 % of control (dose: 17.5 mg/kg/injection, schedule: Q01DX009 (ip), vehicle: Klucel (hydroxypropylcellulose) (HPC)); 100 % of control (dose: 26.25 mg/kg/injection, schedule: Q04DX003 (ip), vehicle: Klucel (hydroxypropylcellulose) (HPC)); 122 % of control (dose: 35.0 mg/kg/injection, schedule: Q01DX009 (ip), vehicle: Klucel (hydroxypropylcellulose) (HPC)); 100 % of control (dose: 52.5 mg/kg/injection, schedule: Q04DX003 (ip), vehicle: Klucel (hydroxypropylcellulose) (HPC)).
`O=c1c2ccccc2[nH]c2ccc(Cl)cc12`: the T/C is, setting by setting: (dose: 100.0 mg/kg/injection, schedule: Q01DX009 (ip), vehicle: saline with Tween-80) 97 % of control; (dose: 200.0 mg/kg/injection, schedule: Q01DX009 (ip), vehicle: saline with Tween-80) 98 % of control; (dose: 400.0 mg/kg/injection, schedule: Q01DX009 (ip), vehicle: saline with Tween-80) 89 % of control.
Regarding `CC(=O)Nc1nnc(/C=C/c2ccc([N+](=O)[O-])o2)s1`, under setting [12], the T/C was 100 % of control.
In the case of `CC(=O)Nc1ccc(NC2=NCCO2)cc1`, the T/C is, setting by setting: (dose: 50.0 mg/kg/injection, schedule: Q01DX001 (ip), vehicle: saline with Tween-80) 100 % of control; under setting [1], 95 % of control; under setting [2], 90 % of control.
Consider `Nc1cc(=O)n(Cc2ccco2)c(=S)[nH]1`, for which the T/C reads like this: (dose: 50.0 mg/kg/injection, schedule: Q01DX005 (ip), vehicle: saline with Tween-80) 93 % of control; (dose: 100.0 mg/kg/injection, schedule: Q01DX005 (ip), vehicle: saline with Tween-80) 102 % of control; (dose: 200.0 mg/kg/injection, schedule: Q01DX005 (ip), vehicle: saline with Tween-80) 100 % of control.
In the case of `CC12OC(=O)CC1CC(=O)O2` (centres undefined), the T/C is, setting by setting: (dose: 50.0 mg/kg/injection, schedule: Q01DX001 (ip), vehicle: saline) 95 % of control; (dose: 100.0 mg/kg/injection, schedule: Q01DX001 (ip), vehicle: saline) 95 % of control; (dose: 200.0 mg/kg/injection, schedule: Q01DX001 (ip), vehicle: saline) 105 % of control.
